Assay results taken from ChEMBL document CHEMBL1144592, “Synthesis and antimicrobial activities of Schiff bases derived from 5-chloro-salicylaldehyde” (2007).
≈ marks a conversion by molar mass, not a printed value.

How the values were obtained:
Format in all cases: functional
[1] = test system: Bacillus subtilis; assay: Antibacterial activity against Bacillus subtilis after 24 hrs by MTT colorimetric method
[2] = test system: Candida albicans; assay: Antifungal activity against Candida albicans after 48 hrs by MTT colorimetric method
[3] = test system: Aspergillus niger; assay: Antifungal activity against Aspergillus niger after 48 hrs by MTT colorimetric method
[4] = test system: Trichophyton rubrum; assay: Antifungal activity against Trichophyton rubrum after 48 hrs by MTT colorimetric method
[5] = test system: Pseudomonas fluorescens; assay: Antibacterial activity against Pseudomonas fluorescens after 24 hrs by MTT colorimetric method
[6] = test system: Staphylococcus aureus; assay: Antibacterial activity against Staphylococcus aureus after 24 hrs by MTT colorimetric method
[7] = test system: Escherichia coli; assay: Antibacterial activity against Escherichia coli after 24 hrs by MTT colorimetric method

Row | Compound | MIC [1] [µg/mL] | MIC [2] [µg/mL] | MIC [3] [µg/mL] | MIC [4] [µg/mL] | MIC [5] [µg/mL] | MIC [6] [µg/mL] | MIC [7] [µg/mL]
1 | Oc1ccc(Cl)cc1/C=N/C1CCCC1 | > 50 | > 50 | > 50 | > 50 | 3.4 (≈ 15.2 µM) | > 50 | 4.1 (≈ 18.3 µM)
2 | O=[N+]([O-])c1ccc(/N=C/c2cc(Cl)ccc2O)cc1 | > 50 | > 50 | > 50 | > 50 | > 50 | 18.5 (≈ 66.9 µM) | > 50
3 | Oc1ccc(Cl)cc1/C=N/C1CCN(Cc2ccccc2)CC1 | > 50 | > 50 | > 50 | > 50 | > 50 | > 50 | > 50
4 | OCC/N=C/c1cc(Cl)ccc1O | > 50 | 12.5 (≈ 62.6 µM) | > 50 | > 50 | > 50 | 15.5 (≈ 77.6 µM) | > 50
5 | CN(C)CCC/N=C/c1cc(Cl)ccc1O | > 50 | > 50 | > 50 | > 50 | > 50 | > 50 | > 50
6 | Oc1ccc(Cl)cc1/C=N/CC/N=C/c1cc(Cl)ccc1O | > 50 | > 50 | > 50 | > 50 | 2.8 (≈ 8.3 µM) | > 50 | > 50
7 | Oc1ccc(Cl)cc1/C=N/Cc1ccccc1 | > 50 | > 50 | > 50 | > 50 | 3.2 (≈ 13 µM) | > 50 | 3.1 (≈ 12.6 µM)
8 | CN(CCC/N=C/c1cc(Cl)ccc1O)CCC/N=C/c1cc(Cl)ccc1O | > 50 | > 50 | > 50 | > 50 | > 50 | > 50 | > 50
9 | Oc1ccc(Cl)cc1/C=N/CCCCCC/N=C/c1cc(Cl)ccc1O | > 50 | > 50 | > 50 | > 50 | > 50 | > 50 | > 50
10 | CC1(/N=C/c2cc(Cl)ccc2O)CCC(C(C)(C)/N=C/c2cc(Cl)ccc2O)CC1 (stereo unspecified) | > 50 | > 50 | > 50 | > 50 | > 50 | > 50 | > 50
11 | Oc1ccc(Cl)cc1/C=N/CC1CCCCC1 | > 50 | > 50 | > 50 | > 50 | > 50 | > 50 | > 50
12 | CCN(CC)CCC/N=C/c1cc(Cl)ccc1O | > 50 | > 50 | > 50 | > 50 | > 50 | > 50 | > 50
13 | Oc1ccc(Cl)cc1/C=N/CC1CCCC(C/N=C/c2cc(Cl)ccc2O)C1 (stereo unspecified) | > 50 | > 50 | > 50 | > 50 | > 50 | > 50 | > 50
14 | Oc1ccc(Cl)cc1/C=N/CCNCC/N=C/c1cc(Cl)ccc1O | > 50 | > 50 | > 50 | > 50 | 32.5 (≈ 85.5 µM) | > 50 | > 50
15 | Oc1ccc(Cl)cc1/C=N/CCC/N=C/c1cc(Cl)ccc1O | > 50 | > 50 | > 50 | > 50 | 4.5 (≈ 12.8 µM) | > 50 | 5 (≈ 14.2 µM)
16 | Oc1ccc(Cl)cc1/C=N/CCN1CCOCC1 | > 50 | > 50 | > 50 | > 50 | 2.5 (≈ 9.3 µM) | > 50 | 3.5 (≈ 13 µM)
17 | Oc1ccc(Cl)cc1/C=N/Cc1cccnc1 | > 50 | > 50 | > 50 | > 50 | 12.5 (≈ 50.7 µM) | 19.5 (≈ 79 µM) | > 50
18 | NC[C@H]1O[C@H](O[C@H]2[C@H](O)[C@@H](O[C@H]3O[C@H](CO)[C@@H](O)[C@H](N)[C@H]3O)[C@H](N)C[C@@H]2N)[C@H](O)[C@@H](O)[C@@H]1O [KANAMYCIN] | 0.39 (≈ 0.805 µM) | > 50 | > 50 | > 50 | 3.9 (≈ 8.05 µM) | 1 (≈ 2.06 µM) | 3.9 (≈ 8.05 µM)
19 | CC(=O)N1CCN(c2ccc(OC[C@H]3CO[C@](Cn4ccnc4)(c4ccc(Cl)cc4Cl)O3)cc2)CC1 [KETOCONAZOLE] | > 50 | 3.9 (≈ 7.34 µM) | 7.8 (≈ 14.7 µM) | 3.9 (≈ 7.34 µM) | > 50 | > 50 | > 50

Now from value to compound:

Row | MIC [1] [µg/mL] | MIC [2] [µg/mL] | MIC [3] [µg/mL] | MIC [4] [µg/mL] | MIC [5] [µg/mL] | MIC [6] [µg/mL] | MIC [7] [µg/mL] | Compound
20 | > 50 | > 50 | > 50 | > 50 | 12.5 (≈ 52.6 µM) | 25 (≈ 105 µM) | 48.6 (≈ 204 µM) | Oc1ccc(Cl)cc1/C=N/C1CCCCC1
21 | > 50 | > 50 | > 50 | > 50 | > 50 | > 50 | > 50 | CCOC(=O)N1CCC(/N=C/c2cc(Cl)ccc2O)CC1
22 | > 50 | > 50 | > 50 | > 50 | 40.5 (≈ 137 µM) | > 50 | > 50 | CC1(C)CC(/N=C/c2cc(Cl)ccc2O)CC(C)(C)N1
23 | > 50 | > 50 | > 50 | > 50 | > 50 | 22.5 (≈ 84 µM) | > 50 | Oc1ccc(Cl)cc1/C=N/CCN1CCNCC1
24 | > 50 | > 50 | > 50 | > 50 | > 50 | 18.5 (≈ 65.4 µM) | > 50 | Oc1ccc(Cl)cc1/C=N/CCCN1CCOCC1
25 | 48.5 (≈ 176 µM) | > 50 | > 50 | > 50 | 3.1 (≈ 11.2 µM) | 1.8 (≈ 6.53 µM) | > 50 | Oc1ccc(CC/N=C/c2cc(Cl)ccc2O)cc1
26 | 49.8 (≈ 211 µM) | > 50 | > 50 | > 50 | 5.2 (≈ 22.1 µM) | > 50 | 5.7 (≈ 24.2 µM) | Oc1ccc(Cl)cc1/C=N/Cc1ccco1
27 | 1.8 (≈ 5.12 µM) | > 50 | > 50 | > 50 | 3.6 (≈ 10.2 µM) | > 50 | 4.9 (≈ 14 µM) | CC(C/N=C/c1cc(Cl)ccc1O)/N=C/c1cc(Cl)ccc1O (stereo unspecified)
28 | 45.2 (≈ 171 µM) | > 50 | 47.5 (≈ 180 µM) | > 50 | 2.8 (≈ 10.6 µM) | 3.4 (≈ 12.9 µM) | 1.6 (≈ 6.07 µM) | Oc1ccc(Cl)cc1/C=N/Cc1ccc(F)cc1
